Test results published in patent US20250136634A1, “CAP ANALOG AND USE THEREOF” (SHANGHAI HONGENE BIOTECH CORPORATION, priority 2021, published 2025).

System: Hela cells (ATCC CCL-2)
Test: Protein expression of Gaussia luciferase mRNA with various initial caps in transfected Hela cells
Assay type: cell-based
Settings: 2 ug mRNA/well, 24 h after transfection, relative to ^m7GpppApG cap, mean±SD; for Relative Luciferase Unit RLU (after purification): HPLC-purified mRNA; for Relative Luciferase Unit RLU (no purification): unpurified mRNA
Protocol: In this example, Hela cells (ATCC CCL-2) were transfected with luciferase mRNAs (Gaussia luciferase) comprising various initial cap structures (the initial cap nucleotide structures comprised are: ^m7GpppApG, ^m7GpppA2′Ome pG, ^m7G3′OmepppA2′O-ethylpG, ^m7G2′OmepppA2′O-ethylpG, ^m7G3′OmepppA2′O-MOEpG, ^m7G2′O-mepppA2′O-MOEpG, ^m7Gppp(N6-methyladenine)2′O-MOEpG, ^m7G2′OmepppC2′O-ethylpC, ^m7G3′OmepppA2′O-MOEpU), and the signal intensity of luciferase was detected by microplate reader after 24 h. The fluorescence signal intensity was proportional to the abundance of protein expression. Hela cells were seeded at a density of 4×10^5/well in 6-well plates, and transfection was carried out when the cell density reached approximately 80%. Each well was transfected with 2 ug mRNA, and the transfection reagent was Lipofectamine MessengerMAX Transfection Reagent (Invitrogen), and the transfection steps were carried out according to the instructions. Twenty-four hours after transfection, the signal intensity of luciferase was measured on microplate reader. Measurement of luciferase fluorescence: the transfected cell culture solution was transferred to a 1.5 mL centrifuge tube and centrifuged, 10 ul of cell supernatant was taken and added to a 96-well plate, and 50 ul of 10 ng/ml substrate was added, and then the fluorescence intensity was measured on Synergy HI (BioTek) instrument. The expression of each mRNA was required to be measured 6 times and the expression results were relative values to the results of ^m7GpppApG cap.
The fluorescence signal intensity was proportional to the abundance of protein expression.
Hela cells were seeded at a density of 4×10^5/well in 6-well plates, and transfection was carried out when the cell density reached approximately 80%. Each well was transfected with 2 ug mRNA, and the transfection reagent was Lipofectamine MessengerMAX Transfection Reagent (Invitrogen), and the transfection steps were carried out according to the instructions. Twenty-four hours after transfection, the signal intensity of luciferase was measured on microplate reader. Measurement of luciferase fluorescence: the transfected cell culture solution was transferred to a 1.5 mL centrifuge tube and centrifuged, 10 ul of cell supernatant was taken and added to a 96-well plate, and 50 ul of 10 ng/ml substrate was added, and then the fluorescence intensity was measured on Synergy HI (BioTek) instrument. The expression of each mRNA was required to be measured 6 times and the expression results were relative values to the results of ^m7GpppApG cap.

Row | Substance | Relative Luciferase Unit RLU (after purification) (Example 2) | Relative Luciferase Unit RLU (no purification) (Example 2) | Relative Luciferase Unit RLU (after purification) (Example 3 (IVT at 50° C.)) | Relative Luciferase Unit RLU (no purification) (Example 3 (IVT at 50° C.))
1 | ^m7Gppp(N6-methyladenine)2′O-MOEpG | 3.23 ± 0.07 | 2.98 ± 0.02 | – | –
2 | ^m7G3′OmepppA2′O-MOEpU | 1.76 ± 0.12 | 1.32 ± 0.06 | – | –
3 | ^m7G2′OmepppA2′O-ethylpG | 3.34 ± 0.01 | 2.83 ± 0.11 | – | –
4 | ^m7G2′OmepppC2′O-ethylpC | 1.71 ± 0.18 | 1.33 ± 0.06 | – | –
5 | ^m7G3′OmepppA2′O-MOEpG | 4.18 ± 0.16 | 3.3 ± 0.13 | – | –
6 | ^m7G2′OmepppA2′O-MOEpG | 5.11 ± 0.17 | 4.47 ± 0.07 | – | –
7 | ^m7G3′OmepppA2′O-ethylpG | 2.73 ± 0.03 | 2.63 ± 0.15 | – | –
8 | ^m7GBeta-D-LNApppA2′O-MOEpG | – | – | 3.45 ± 0.01 | 3 ± 0.12
9 | ^m7GpppApG [reference compound] | 1 ± 0.19 | 1 ± 0.02 | 1 ± 0.12 | 1 ± 0.02
10 | ^m7GAlpha-L-LNApppA2′O-ethyl pG | – | – | 2.97 ± 0.09 | 2.67 ± 0.02
11 | ^m7GpppA2′Ome pG [reference compound] | 3.3 ± 0.13 | 2.94 ± 0.02 | 1.56 ± 0.11 | 1.25 ± 0.11
